Values joined by “and” are separate entries in the source; they are usually repeats but may differ in a detail not shown here. Equal values may be shown once.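 Protocol summary: plate cells (96-well), add compound at 5 concentrations, incubate 48 h, interpolate endpoints linearly. GI50 is the concentration that inhibits growth by half. At the TGI there is no net growth.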
What was measured:
Experiment in all cases: DTP human tumour cell line panel, 48 h
PC-3 prostate = system: PC-3 prostate
T-47D breast = system: T-47D breast
XF 498 CNS = system: XF 498 CNS
HOP-18 NSCLC = system: HOP-18 NSCLC
MDA-N = system: MDA-N

## CCCCCCCCc1cc(O)ccc1O
PC-3 prostate
  GI50: 16 µM
  TGI: 37.3 µM
T-47D breast
  GI50: 14.2 µM
  TGI: 37.6 µM

## COC(=O)[C@@H](C)C[C@H](Cc1ccccc1)NC(=O)c1csc([C@@H](C[C@H](C(C)C)N(C)C(=O)[C@@H](NC(=O)[C@H]2CCCCN2C)C(C(F)(F)F)C(F)(F)F)OC(C)=O)n1
PC-3 prostate
  GI50: 0.0452 µM
  TGI: 3.87 µM

## Oc1ccc(O)c(-n2cccn2)c1-n1cccn1
XF 498 CNS
  TGI: > 100 µM

## C=CCO[C@H]1CC[C@@]2(C)C(CC[C@]3(C)C2CC=C2[C@@H]4[C@@H](C)C(C)CC[C@]4(C(=O)O)CCC23C)C1(C)C (some centres not stated)
HOP-18 NSCLC
  TGI: 37.1 µM
XF 498 CNS
  TGI: 20.2 µM

## CC(CC(=O)Nc1ccc(NC(=O)CC(C)N=NC(N)=O)cc1)N=NC(N)=O (configuration not stated)
HOP-18 NSCLC
  TGI: > 100 µM
XF 498 CNS
  TGI: > 100 µM

## C=C1C(=O)OC2(C)CCC1CC1OC1(C)CCC=C(C)CCC2O (configuration not stated)
MDA-N
  TGI: 97.4 µM
PC-3 prostate
  TGI: > 100 µM
T-47D breast
  TGI: > 100 µM

## COc1ccc(/C=C/C(=O)c2ccc(Nc3nc(Nc4ccc(F)cc4)nc(Nc4ccc(F)cc4)n3)cc2)cc1
PC-3 prostate
  GI50: 5.06 µM
  TGI: 21.4 µM
T-47D breast
  GI50: 5.42 µM
  TGI: 52.5 µM

## CSc1nc2ccc(C)cc2cc1/C=C1/C=C(c2ccccc2)NC1=O
PC-3 prostate
  GI50: 5.32 µM
  TGI: > 100 µM
T-47D breast
  GI50: 1.66 µM
  TGI: 24.5 µM

## O/N=C1\C(=C\c2ccc3c(c2)OCCO3)CCCC1C(NO)c1ccc2c(c1)OCCO2 (configuration not stated)
HOP-18 NSCLC
  TGI: > 100 µM

## COc1ccc2c(c1)[nH]c1c3ccc(OC)cc3oc(=O)c21
MDA-N
  TGI: > 100 µM
PC-3 prostate
  TGI: > 100 µM
T-47D breast
  TGI: > 100 µM

## Nc1ccn(C2CC3OCC3O2)c(=O)n1 (configuration not stated)
MDA-N
  TGI: > 100 µM
PC-3 prostate
  TGI: > 100 µM
T-47D breast
  TGI: > 100 µM

## COC(=O)Nc1nc2ccc(C(=O)c3cccs3)cc2[nH]1
HOP-18 NSCLC
  TGI: > 100 µM
MDA-N
  TGI: 2.57 µM
PC-3 prostate
  GI50: 0.246 µM
  TGI: 14.2 µM and > 100 µM
T-47D breast
  GI50: > 100 µM
  TGI: > 100 µM
XF 498 CNS
  TGI: 0.0934 µM

## COC(=O)C(=O)C(C#N)c1c(Cl)cccc1Cl (configuration not stated)
XF 498 CNS
  TGI: > 100 µM

## CC1=C2C3OC(=O)C(C)C3C(O)C[C@@]2(C)C(=O)CC1 (some centres not stated)
HOP-18 NSCLC
  TGI: > 100 µM

## O=C1C(OC(=O)c2ccccc2)=C(c2ccc(O)cc2)C(=O)C(OC(=O)c2ccccc2)=C1c1ccc(O)cc1
MDA-N
  TGI: > 100 µM
PC-3 prostate
  TGI: > 100 µM
T-47D breast
  TGI: > 100 µM

## C[C@@H](C[C@H](CCO)c1ccccc1)c1ccc2ccccc2c1
PC-3 prostate
  GI50: 1.39 µM
  TGI: 2.72 µM
T-47D breast
  GI50: 1.44 µM
  TGI: 3.11 µM

## C/C(=N\Nc1n[nH]c(=S)n1N)c1c(O)cc(C)oc1=O
HOP-18 NSCLC
  TGI: > 100 µM

## COC(=O)C(/C(=N\O)C(=O)Nc1ccc(Br)cc1)c1nc2ccccc2[nH]c1=O (configuration not stated)
HOP-18 NSCLC
  TGI: > 100 µM

## CN1CCN(c2nc3cc(F)ccc3n3cccc23)CC1
MDA-N
  TGI: > 100 µM
PC-3 prostate
  TGI: > 100 µM
T-47D breast
  TGI: > 100 µM

## N=C1C=C(N)C(=O)c2ccccc21
PC-3 prostate
  GI50: 0.281 µM
  TGI: 1.34 µM
T-47D breast
  GI50: 0.261 µM
  TGI: 0.671 µM

## Cc1nc2sc(C(=O)Nc3ccccc3)c(N)c2cc1C(=O)c1ccccc1
PC-3 prostate
  GI50: 1.66 µM
  TGI: > 50 µM
T-47D breast
  GI50: 2.94 µM
  TGI: > 50 µM

## Cc1c(Cl)cccc1NC(=O)C(=O)c1c(O)c2ccc(O)cc2oc1=O
HOP-18 NSCLC
  TGI: > 100 µM
XF 498 CNS
  TGI: > 100 µM

## Cn1cc(-c2csc(-c3cn(C(=O)OC(C)(C)C)c4ccccc34)n2)c2cccnc21
PC-3 prostate
  GI50: 4.89 µM
  TGI: 24.4 µM
T-47D breast
  GI50: 3.71 µM
  TGI: 15.6 µM

## CCSc1nc(N)c2cnn(CC)c2n1
PC-3 prostate
  GI50: 4.34 µM
  TGI: 14.8 µM
T-47D breast
  GI50: 17.3 µM
  TGI: > 100 µM

## CN(C)C(=S)/N=c1\ss/c(=N\S(=O)(=O)c2ccccc2)n1C
HOP-18 NSCLC
  TGI: > 100 µM
XF 498 CNS
  TGI: > 100 µM

## O=C(/C=C/c1ccc(Cl)cc1Cl)c1ccc(Cl)cc1Cl
PC-3 prostate
  GI50: 24.4 µM
  TGI: 64.3 µM
T-47D breast
  GI50: 24.2 µM
  TGI: > 72.7 µM

## CC1=C(SCCC(=O)OC(C[Se]C2=C(C)C(=O)c3ccccc3C2=O)C(=O)NC(C)(C)C)C(=O)c2ccccc2C1=O (configuration not stated)
PC-3 prostate
  GI50: 0.457 µM
  TGI: 1.69 µM
T-47D breast
  GI50: 0.904 µM
  TGI: 2.95 µM

## CN(C)CCOc1ccc2c(c1)C(=O)/C(=C\c1ncc([N+](=O)[O-])n1C)C2
PC-3 prostate
  GI50: 0.965 µM
  TGI: 4.82 µM
T-47D breast
  GI50: 1.76 µM
  TGI: 11.4 µM

## CCCC(=O)OC(OC(=O)CCC)c1ccc([N+](=O)[O-])o1
MDA-N
  TGI: 46.3 µM
PC-3 prostate
  TGI: > 100 µM
T-47D breast
  TGI: 61.5 µM

## CN1C/C(=C\c2ccc(C(=O)O)cc2)C(=O)/C(=C/c2ccc(C(=O)O)cc2)C1
HOP-18 NSCLC
  TGI: > 100 µM
XF 498 CNS
  TGI: > 100 µM

## CCN1CCC(O)(/C=C/c2ccccc2)C(C(=O)/C=C/c2ccccc2)C1 (configuration not stated)
HOP-18 NSCLC
  TGI: 18.1 µM
XF 498 CNS
  TGI: 18.5 µM

## C#C[C@@H](CCCC)OC(=O)N[C@H](C)c1ccccc1
HOP-18 NSCLC
  TGI: > 100 µM
XF 498 CNS
  TGI: > 100 µM

## CNC(=O)c1cc(-c2ccc(F)cc2)cc(-c2ccc(S(=O)(=O)N3CCCC3)cc2)c1N
PC-3 prostate
  GI50: 8.54 µM
  TGI: > 25 µM
T-47D breast
  GI50: 10.5 µM
  TGI: > 25 µM

## N#CC(C#N)C(c1ccccc1)c1ccccc1
HOP-18 NSCLC
  TGI: > 100 µM

## CCOC(=O)C(=O)Nc1nc2ccc(C)cc2s1
XF 498 CNS
  TGI: > 100 µM

## COc1ccc(/C=C2/CSC/C(=C/c3ccc(OC)c(OC)c3)C2=O)cc1OC
HOP-18 NSCLC
  TGI: 17.3 µM
MDA-N
  TGI: 8.89 µM
PC-3 prostate
  TGI: 11.7 µM
T-47D breast
  TGI: 4.94 µM
XF 498 CNS
  TGI: 25.8 µM

## CC(=O)/C(=C/N1CCN(C(=O)c2ccco2)C1=S)C(=O)c1ccccc1
PC-3 prostate
  GI50: 17.1 µM
  TGI: > 50 µM
T-47D breast
  GI50: 4.29 µM
  TGI: > 50 µM

## COc1cc([C@@H]2c3cc4c(cc3[C@@H](NCc3cccc(F)c3)C3COC(=O)[C@@H]32)OCO4)cc(OC)c1O (some centres not stated)
HOP-18 NSCLC
  TGI: > 65 µM
